Results on 22 compounds are retold here after PubChem BioAssay (NCI).

Several values for one entry are separate records, joined by “and”; a condition that tells them apart may be missing. Identical values can stand only once.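 Assay format: 96-well plates, 48-hour exposure. GI50 is the concentration that inhibits growth by half. TGI: total growth inhibition.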

Test systems include 786-0 renal; BT-549 breast; OVCAR-3 ovarian; OVCAR-4 ovarian; OVCAR-5 ovarian; SF-268 CNS; SK-MEL-2 melanoma; SW-620 colon; T-47D breast; UACC-62 melanoma.
What all share (assay): growth of human tumour cells (NCI), 48 h

On to `CC(C)=CCc1c2c(c3occ(-c4ccc(O)c(O)c4)c(=O)c3c1O)C=CC(C)(C)O2`, for which the TGI with 786-0 renal turned out to be 2.88 µM; in the experiment on BT-549 breast, 13.8 µM; in the experiment with OVCAR-3 ovarian, 3.59 µM; with OVCAR-4 ovarian it was 3.39 µM; with OVCAR-5 ovarian it was 21.1 µM; with SF-268 CNS it was 4.93 µM. Also, the TGI was determined as 11.1 µM in the experiment with SK-MEL-2 melanoma, 2.36 µM in the experiment with SW-620 colon, 10.5 µM in the experiment on T-47D breast and 14.2 µM in the experiment with UACC-62 melanoma.

Take `COc1cc(C2c3cc4c(cc3OC(NN=C(C)C)C2C)OCO4)cc(OC)c1O` (stereo unspecified): the TGI in the experiment with 786-0 renal, in the experiment with BT-549 breast, in the experiment on OVCAR-3 ovarian, in the experiment on OVCAR-4 ovarian, in the experiment on OVCAR-5 ovarian and with SF-268 CNS was greater than 100 µM in each case. The TGI with SK-MEL-2 melanoma is 55.9 µM; with SW-620 colon it was greater than 100 µM; in the experiment on T-47D breast, greater than 100 µM; in the experiment with UACC-62 melanoma, greater than 100 µM.

On to `O=C(Nc1cccc2cnccc12)c1cc2c(cc1Cl)Sc1nccn1S2(=O)=O`, for which the TGI in the experiment with 786-0 renal amounted to 33.1 µM; with BT-549 breast, 40.2 µM; in the experiment with OVCAR-3 ovarian it was 56.7 µM; with OVCAR-4 ovarian, 87.1 µM; in the experiment with OVCAR-5 ovarian, 77.8 µM; in the experiment on SF-268 CNS it was 42.2 µM. Also, the TGI is 32.2 µM in the experiment on SK-MEL-2 melanoma, 50.8 µM in the experiment with SW-620 colon, 40.8 µM with T-47D breast and 26 µM with UACC-62 melanoma.

Consider `O=C1CCC(=Nc2ccc(Cl)cc2)N1C(=O)COc1ccc(OCC(=O)N2C(=O)CSC2=Nc2ccc(Cl)cc2)cc1`, for which the TGI with 786-0 renal, in the experiment with BT-549 breast, with OVCAR-3 ovarian, with OVCAR-4 ovarian, in the experiment with OVCAR-5 ovarian and in the experiment with SF-268 CNS was greater than 100 µM each time. Besides, the TGI with SK-MEL-2 melanoma, in the experiment with SW-620 colon, with T-47D breast and with UACC-62 melanoma was greater than 100 µM throughout.

As for `CC1(C)O[C@@H]2COC(=O)[C@@H]2O1`, the TGI with 786-0 renal, with BT-549 breast, in the experiment on OVCAR-3 ovarian, with OVCAR-4 ovarian, with OVCAR-5 ovarian and with SF-268 CNS was greater than 100 µM in each case. Moreover, the TGI in the experiment on SK-MEL-2 melanoma, in the experiment with SW-620 colon, in the experiment with T-47D breast and in the experiment on UACC-62 melanoma was greater than 100 µM in each case.

Consider `C1CCSCCCCSCCCCSCCCCSC1`, for which the TGI in the experiment with 786-0 renal, with BT-549 breast, in the experiment with OVCAR-3 ovarian, in the experiment with OVCAR-4 ovarian, with OVCAR-5 ovarian and in the experiment on SF-268 CNS was greater than 100 µM in each case. Also, the TGI in the experiment with SK-MEL-2 melanoma, in the experiment on SW-620 colon, in the experiment on T-47D breast and with UACC-62 melanoma was greater than 100 µM in each case.

Consider `COc1cc2c(cc1OCCCCOc1cc(-c3ccc(F)cc3)nc(C)n1)N=C[C@@H]1CCCN1C2=O`, for which the TGI in the experiment with 786-0 renal stood at 6.94 µM; in the experiment on BT-549 breast, 2.28 µM; in the experiment on OVCAR-3 ovarian, 2.66 µM; in the experiment on OVCAR-4 ovarian, 2.3 µM; in the experiment with OVCAR-5 ovarian, 10.9 µM; with SF-268 CNS, 16.3 µM. Also, the TGI came to 2.31 µM in the experiment with SK-MEL-2 melanoma, 4.85 µM with SW-620 colon, 1.14 µM in the experiment on T-47D breast and 1.28 µM with UACC-62 melanoma.

In the case of `COc1ccc(N[C@H](CSc2ccc(C)cc2)c2ccc(F)cc2)cc1`, the TGI in the experiment with 786-0 renal, in the experiment on BT-549 breast, in the experiment with OVCAR-3 ovarian, in the experiment with OVCAR-4 ovarian, in the experiment on OVCAR-5 ovarian and with SF-268 CNS was greater than 100 µM each time. The TGI with SK-MEL-2 melanoma, in the experiment on SW-620 colon, in the experiment on T-47D breast and in the experiment with UACC-62 melanoma was greater than 100 µM each time.

Turning to `Cc1cc(C)c2c(=O)n(CN3CC4Nc5ccccc5C4C3)sc2n1` (stereo unspecified), the TGI with 786-0 renal is 33.8 µM; in the experiment on BT-549 breast, greater than 100 µM; with OVCAR-3 ovarian it was 98.5 µM; with OVCAR-4 ovarian, 42.2 µM; with OVCAR-5 ovarian, 42.4 µM; in the experiment on SF-268 CNS, 54.1 µM. Also, the TGI in the experiment with SK-MEL-2 melanoma was 54.2 µM; in the experiment on SW-620 colon, 63.7 µM; in the experiment on T-47D breast it was greater than 100 µM; with UACC-62 melanoma it was 71.4 µM.

Regarding `CCSC1=CC(=O)c2nc3ccccc3c3ccnc1c23`, the TGI in the experiment on 786-0 renal was 11.4 µM; with BT-549 breast it was 26.3 µM; in the experiment on OVCAR-3 ovarian it was greater than 23.1 µM; with OVCAR-4 ovarian, 7.53 µM; in the experiment with OVCAR-5 ovarian, 15 µM; in the experiment with SF-268 CNS, greater than 22 µM. In addition, the TGI with SK-MEL-2 melanoma is 5.6 µM; with SW-620 colon, greater than 21.4 µM; in the experiment with T-47D breast it was 78.2 µM; in the experiment with UACC-62 melanoma, 4.32 µM.

As for `CCCCn1c2c(n(CCCC)c1=S)-c1c(n(CCCC)c(=S)n1CCCC)S[Se][Se]S2`, the TGI was greater than 43.9 µM in the experiment with 786-0 renal; 35.5 µM in the experiment with BT-549 breast; 7.84 µM with OVCAR-3 ovarian; greater than 37.4 µM with OVCAR-4 ovarian; 6.72 µM in the experiment on OVCAR-5 ovarian; greater than 83.4 µM in the experiment on SF-268 CNS. The TGI with SK-MEL-2 melanoma is greater than 55.6 µM; in the experiment on SW-620 colon it was 6.64 µM; in the experiment with T-47D breast, 2.04 µM; in the experiment on UACC-62 melanoma it was 22.3 µM.

Turning to `C=C1C(=O)OC2/C=C(\CO)C(OC(C)=O)CC(O)/C(C)=C/C(OC(=O)C(C)CC)C12` (stereo unspecified), the TGI in the experiment with 786-0 renal was 28.8 µM and 52.9 µM; in the experiment with BT-549 breast it was 36.9 µM; in the experiment with OVCAR-3 ovarian, 33.4 µM and 30.6 µM; with OVCAR-4 ovarian, 32.5 µM and > 100 µM; with OVCAR-5 ovarian, > 92.8 µM and 32.2 µM; with SF-268 CNS, 73.3 µM and 49.9 µM. Besides, the TGI is 32.3 µM and 33.1 µM with SK-MEL-2 melanoma; 24.4 µM and 78 µM in the experiment on SW-620 colon; 30.7 µM with T-47D breast; 32.3 µM and 38 µM in the experiment on UACC-62 melanoma. Also, the GI50 in the experiment on OVCAR-5 ovarian is 38.9 µM and 17 µM.

Turning to `O=c1c2ncn(C3CC(O)C(CO)O3)c2nnn1Cc1ccccc1[N+](=O)[O-]` (stereo unspecified), the TGI in the experiment with 786-0 renal, in the experiment on BT-549 breast, in the experiment with OVCAR-3 ovarian, with OVCAR-4 ovarian, in the experiment with OVCAR-5 ovarian and with SF-268 CNS was greater than 100 µM throughout. Also, the TGI in the experiment with SK-MEL-2 melanoma, with SW-620 colon, with T-47D breast and with UACC-62 melanoma was greater than 100 µM throughout.

On to `CC(=O)OC[C@]1(C(=O)C(O)c2ccoc2)[C@H](C)CC[C@@]23COC(=O)C2=CCC[C@@H]31` (stereo partly specified), for which the TGI in the experiment with 786-0 renal, in the experiment with BT-549 breast, in the experiment with OVCAR-3 ovarian, in the experiment with OVCAR-4 ovarian, in the experiment on OVCAR-5 ovarian and with SF-268 CNS was greater than 10 µM each time. Further, the TGI in the experiment with SK-MEL-2 melanoma, with SW-620 colon, with T-47D breast and in the experiment on UACC-62 melanoma was greater than 10 µM each time.

Consider `COc1cccc(-c2cc(=O)c3c(C)cc(C)nc3[nH]2)c1`, for which the TGI in the experiment on 786-0 renal was greater than 100 µM; in the experiment on BT-549 breast, greater than 100 µM; in the experiment on OVCAR-3 ovarian it was 0.652 µM; with OVCAR-4 ovarian, greater than 100 µM; with OVCAR-5 ovarian, greater than 100 µM; with SF-268 CNS it was 36.2 µM. Also, the TGI is 97.6 µM with SK-MEL-2 melanoma, greater than 100 µM with SW-620 colon, greater than 100 µM in the experiment with T-47D breast and greater than 100 µM in the experiment on UACC-62 melanoma.

In the case of `CC1(C)C(c2ccccc2)=[N+]([O-])C(C)(C)N1O`, the TGI in the experiment with 786-0 renal, in the experiment on BT-549 breast, in the experiment with OVCAR-3 ovarian, in the experiment with OVCAR-4 ovarian, in the experiment on OVCAR-5 ovarian and in the experiment on SF-268 CNS was greater than 10 µM each time. For the same compound, the TGI with SK-MEL-2 melanoma, with SW-620 colon, in the experiment with T-47D breast and in the experiment on UACC-62 melanoma was greater than 10 µM each time.

For `Cc1ccc(S(=O)(=O)N2CCSCCSCCSCCSCC2)cc1`, the TGI with 786-0 renal is 40.2 µM; in the experiment with BT-549 breast, 44 µM; in the experiment on OVCAR-3 ovarian, 60.7 µM; in the experiment on OVCAR-4 ovarian, 64.2 µM; in the experiment with OVCAR-5 ovarian, greater than 100 µM; with SF-268 CNS it was greater than 75.8 µM. The TGI is greater than 53.6 µM in the experiment with SK-MEL-2 melanoma, greater than 100 µM in the experiment on SW-620 colon, 74.1 µM in the experiment with T-47D breast and 38.1 µM in the experiment with UACC-62 melanoma.

With `Cc1ccccc1OC(C)C(=O)NN1C(=O)CC(=O)N(c2ccc(Cl)cc2)C1=S` (stereo unspecified), the TGI with 786-0 renal, in the experiment on BT-549 breast, in the experiment with OVCAR-3 ovarian, with OVCAR-4 ovarian, in the experiment on OVCAR-5 ovarian and with SF-268 CNS was greater than 100 µM each time. Besides, the TGI with SK-MEL-2 melanoma, in the experiment on SW-620 colon, with T-47D breast and with UACC-62 melanoma was greater than 100 µM in each case.

`O=C1C(c2c(O)[nH]c3ccc(S(=O)(=O)O)cc23)=Nc2ccccc21`: the TGI in the experiment on 786-0 renal, with BT-549 breast, in the experiment with OVCAR-3 ovarian, in the experiment on OVCAR-4 ovarian, in the experiment on OVCAR-5 ovarian and in the experiment with SF-268 CNS was greater than 100 µM throughout. Also, the TGI in the experiment on SK-MEL-2 melanoma, with SW-620 colon, in the experiment on T-47D breast and in the experiment with UACC-62 melanoma was greater than 100 µM each time.

Take `NC(CSCc1ccccc1)C(=O)O` (stereo unspecified): the TGI in the experiment with 786-0 renal, in the experiment on BT-549 breast, in the experiment on OVCAR-3 ovarian, in the experiment with OVCAR-4 ovarian, in the experiment with OVCAR-5 ovarian and with SF-268 CNS was greater than 100 µM each time. In addition, the TGI in the experiment on SK-MEL-2 melanoma, in the experiment on SW-620 colon, in the experiment with T-47D breast and in the experiment with UACC-62 melanoma was greater than 100 µM in each case.

For `CC(C)(C)NC(=O)[C@H]1CC[C@H]2[C@@H]3CC=C4NC(=O)CC[C@]4(C)[C@H]3CC[C@]12C`, the TGI in the experiment with 786-0 renal, in the experiment with BT-549 breast, in the experiment with OVCAR-3 ovarian, in the experiment with OVCAR-4 ovarian, in the experiment with OVCAR-5 ovarian and with SF-268 CNS was greater than 100 µM throughout. In addition, the TGI in the experiment with SK-MEL-2 melanoma, in the experiment on SW-620 colon, in the experiment on T-47D breast and in the experiment on UACC-62 melanoma was greater than 100 µM each time.

With `O=C1/C(=C/c2ccccc2S)N=C(c2ccccc2)N1c1nc2ccc(Sc3ccccc3)cc2[nH]1`, the TGI in the experiment on 786-0 renal was 87.1 µM; with BT-549 breast, 61.1 µM; in the experiment with OVCAR-3 ovarian, 57.2 µM; with OVCAR-4 ovarian, greater than 100 µM; with OVCAR-5 ovarian, greater than 100 µM; in the experiment on SF-268 CNS, greater than 100 µM. Moreover, the TGI is 36.2 µM in the experiment with SK-MEL-2 melanoma, greater than 100 µM in the experiment with SW-620 colon, greater than 100 µM in the experiment with T-47D breast and 73.5 µM in the experiment with UACC-62 melanoma.
